# According to patent publication US20090298813A1, “USE OF NEUROPROTECTIVE COMPOUNDS IN OBTAINING MEDICAMENTS INTENDED FOR THE TREATMENT OF NEURODEGENERATING DISEASES” (LES LABORATOIRES SERVIER, priority 2007, published 2009):
# Columns and labels:
# glial cells = test: Protection from apoptosis caused in vitro in cultures of glial cells (OGD followed by reperfusion); type: cell-based, Sprague Dawley rats; details: 10 μM throughout OGD (3 h) and reperfusion (18 h); relative to control cultures subjected to OGD and reperfusion
# Protocol: A study was carried out to determine if the compounds of the invention protect cultures of glial cells from the apoptosis brought about by oxygen and glucose deprivation (OGD) followed by reperfusion.
# Glial cells are isolated from the brains of newborn Sprague Dawley rats and cultured. They are subjected to OGD for 3 hours by being placed in a glucose-free medium under anaerobic conditions in an incubator (5% CO2, 95% N2).
# Reperfusion is carried out by returning the cultures for 18 hours to the normal medium [Dulbecco's modified Eagle […] (DMEM)], to which 10% fetal calf serum, 2 mM glutamine and 50 μg/ml of gentamicin have been added.
# At the end of the OGD period, the adenosine triphosphate (ATP) content of the cultures is measured in order to assess the degree of ischaemia, using the BIOLUMINESCENT kit (luciferase luminescence).
# The degree of apoptosis is quantified by counting the astrocyte nuclei labelled with the DNA-specific HOECHST 33258 fluorescent dye.
# The compounds of the invention are added to the medium at a concentration of 10 μM throughout the OGD and reperfusion period.
# The results are expressed as the percentage reduction in cell death relative to control cultures subjected to ischaemia by means of OGD and reperfusion.
# [1] = system: mixed (neurons and glia) primary embryonic mesencephalic cultures; test: Neuroprotective and neurotrophic effects in an in vitro model of neurodegeneration (epoxomicin); details: for increase in neuronal survival with respect to their control (neuroprotective): at 100 μM, in the presence of epoxomicin (50 nM), 48 hours
# newborn mice = test: Protection from neurodegeneration caused by ibotenate in newborn mice; type: in vivo, mouse; details: 20 mg/kg i.p.; for Reduction in the size of lesions relative to the controls, cortex / Reduction in the size of lesions relative to the controls, white matter: simultaneous injection at 0 h
# Protocol: Ibotenate, an agonist of N-methyl-D-aspartate (NMDA) receptors, when administered by the intracerebral route to the newborn mouse, brings about lesions of excitotoxic origin in the neocortex and the underlying white matter.
# The ibotenate injection is performed in newborn mice aged 5 days (P5). The compounds of the invention are administered by the i.p. route at a dose of 20 mg/kg [either simultaneously] (P5), [or 8, 24 or 48 hours after induction of the lesions]. […] Cell markers were applied to the brain slices of animals sacrificed at various times after administration of ibotenate and the compound of the invention: (1) cleaved caspase-3, an apoptosis marker; (2) isolectin, a microglial activation marker; (3) glial fibrillary acidic protein (GFAP), a marker of astrogliosis.
# mouse striatum = test: Glial reaction in a 6-OHDA model of Parkinson's disease in the mouse; type: in vivo; details: for microglial reactivity: single i.p. injection of 20 mg/kg
# Protocol: Unilateral injection of 6-OHDA into the mouse striatum using a micro-syringe (0.5 μl of a solution containing 8 μg/μl) causes, from the 3rd day, degeneration of the TH-positive neurons of the striatum, which is accompanied, from the 7th day, by neuronal loss also in the substantia nigra, in accordance with that which is observed. in Parkinson's disease in humans.
# The compounds of the invention are administered by the intraperitoneal route in a single injection of 20 mg/kg 10 minutes after the intracerebral injection of 6-OHDA. One group of mice is sacrificed at 3 days, the other at 7 days.
# [2] = system: dopaminergic neurons of primary rat mesencephalic cultures; test: Neuroprotective effects and stimulation of the catecholaminergic phenotype in vitro (spontaneous death of dopaminergic neurons); type: cell-based
# Protocol: The study is carried out in an in vitro model of primary rat mesencephalic cultures, wherein death of the dopaminergic neurons develops spontaneously and selectively when the cells mature. The culture conditions have been defined in detail in various publications (Douhou et al., J. of Neurochemistry, (2001), 78, 163-174). The culture media are changed daily and, under these conditions, the dopaminergic neurons, but not the other neurons such as GABA-ergic neurons, degenerate spontaneously. Natural trophic factors of the body such as GDNF (glial cell derived neurotrophic factor) have shown a protective effect on the dopaminergic neurons in this model.
# The effects of Examples 1 and 12 were tested at 3 concentrations. The effect is analysed by measuring the rate of tritiated dopamine uptake and the number of surviving neurons by labelling the tyrosine hydroxylase with a fluorescent antibody.
# [3] = epoxomicin 50 nM, after 48 hours
smiles,measurement,setting,value
"O=C1NN2c3ccccc3C[C@H]2[C@@H]2NCCC[C@H]12 (racemic) [Example 6, (4aSR,11aSR,11bRS)-1,2,3,4,4a,11,11a,11b-Octahydro-1,6,6a-triaza-benzo[a]fluoren-5-one]","Reduction in cell death, % reduction",glial cells,22%
"C=CCN1CCC[C@@H]2C(=O)N3c4ccccc4C[C@@H]3[C@H]21 (racemic) [Example 11, (4aSR,11aRS,11bSR)-1-Allyl-1,2,3,4,4a,11,11a,11b-octahydropyrido[2′,3′:3,4]pyrrolo-[1,2-a]indol-5-one]","Reduction in cell death, % reduction",glial cells,44%
"O=C1NC(=O)N2c3ccccc3[C@@H]3CCN4CCC[C@@H]1[C@@H]4[C@@H]32 (single isomer, unassigned) [Example 7, (5aS,12aR,12bR,12cR)- or (5aR,12aS,12bS,12cS)-2,3,5a,12a,12b,12c-Hexahydro-1H,4H-3a,9b,11-triazabenzo[a]naphtho[2,1,8-cde]azulene-10,12(5H,11H)-dione (enantiomer α)]","Reduction in cell death, % reduction",glial cells,35%
"O=C1NC(=O)N2c3ccccc3C3CCN4CCCC1C4C32 (single isomer, unassigned) [Example 8, (5aS,12aR,12bR,12cR)- or (5aR,12aS,12bS,12cS)-2,3,5a,12a,12b,12c-Hexahydro-1H,4H-3a,9b,11-triazabenzo[a]naphtho[2,1,8-cde]azulene-10,12(5H,11H)-dione (enantiomer ,β)]",increase in neuronal survival with respect to their control (neuroprotective),[1],~75%
"CN1CCN(CCN2CCC=C(C(=O)Nn3ccc4cc(Cl)ccc43)C2)CC1 [Example 3, N-(5-Chloroindol-1-yl)-1-[2-(4-methylpiperazin-1-yl)ethyl]-1,2,5,6-tetrahydropyridine-3-carboxamide]","Reduction in the intensity of markers relative to the controls, Cleaved caspase-3 (apoptosis)",newborn mice; sacrifice at 24 h,56%
same,"Reduction in the intensity of markers relative to the controls, Isolectin (microglial activation)",newborn mice; sacrifice at 24 h,50%
same,"Reduction in the intensity of markers relative to the controls, GFAP (astrogliosis)",newborn mice; sacrifice at 120 h,44%
same,"Reduction in the size of lesions relative to the controls, cortex",newborn mice; sacrifice at 24 h,53%
same,"Reduction in the size of lesions relative to the controls, white matter",newborn mice; sacrifice at 24 h,70%
same,"Reduction in the size of lesions relative to the controls, cortex",newborn mice; sacrifice at 120 h,50%
same,"Reduction in the size of lesions relative to the controls, white matter",newborn mice; sacrifice at 120 h,56%
same,reduction of the area occupied by the astrocytes (GFAP) in the striatum,"mouse striatum; single i.p. injection of 20 mg/kg 10 minutes after 6-OHDA, assessed at 7 days, relative to control group (6-OHDA and solvent)",28%
same,microglial reactivity,mouse striatum; at 3 days,remains increased
same,microglial reactivity,mouse striatum; at 7 days,reduced
"CCOC(=O)C1=CCCN(CCN2CCC=C(C(=O)Nn3ccc4ccccc43)C2)C1 [Example 4, N-(Indol-1-yl)-1-[2-[3-(ethoxycarbonyl)-1,2,5,6-tetrahydropyridin-1-yl]ethyl]-1,2,5,6-tetrahydropyridine-3-carboxamide]","Reduction in cell death, % reduction",glial cells,60%
"CN1CCN(CCN2CCC=C(C(=O)Nn3ccc4ccccc43)C2)CC1 [Example 9, N-(Indol-1-yl)-1-[2-(4-methylpiperazin-1-yl)ethyl]-1,2,5,6-tetrahydropyridine-3-carboxamide]","Reduction in cell death, % reduction",glial cells,44%
same,"Reduction in the size of lesions relative to the controls, cortex",newborn mice; sacrifice at 120 h,50%
same,"Reduction in the size of lesions relative to the controls, white matter",newborn mice; sacrifice at 120 h,56%
same,EC50,"[1]; Rattus norvegicus, Neuron, 48 h, read-out: EC50 (neurotrophic)",10.5 µM
"O=C(Nn1ccc2ccccc21)C1=CCCN(CCN2CCCCC2)C1 [Example 10, N-(Indol-1-yl)-1-(2-piperidin-1-yl-ethyl)-1,2,5,6-tetrahydropyridine-3-carboxamide]","Reduction in cell death, % reduction",glial cells,60%
"O=C(Nc1cccnc1)Nn1ccc2ccccc21 [Example 12, N-(1H-Indol-1-yl)-N′-(3-pyridyl)urea]","Reduction in cell death, % reduction",glial cells,59%
same,"Reduction in the size of lesions relative to the controls, cortex",newborn mice; sacrifice at 120 h,64%
same,"Reduction in the size of lesions relative to the controls, white matter",newborn mice; sacrifice at 120 h,58%
same,"cell survival (number of surviving neurons, tyrosine hydroxylase labelling)",[2],significantly increase
same,rate of tritiated dopamine uptake,[2],significantly increase
"O=C(Nc1cccnc1)NN1CCc2ccccc21 [Example 13, N-(2,3-Dihydro-1H-indol-1-yl)-N′-(3-pyridyl)urea]","Reduction in the size of lesions relative to the controls, cortex",newborn mice; sacrifice at 120 h,28%
same,"Reduction in the size of lesions relative to the controls, white matter",newborn mice; sacrifice at 120 h,11%
same,increase in neuronal survival with respect to their control (neuroprotective),[1],~145%
"CC[C@H](C)[C@H](NC(=O)[C@H]([C@@H](C)CC)N(C)C(C)=O)C(=O)N[C@H](C(=O)N[C@@H](CC(C)C)C(=O)[C@@]1(C)CO1)[C@@H](C)O [epoxomicin, reference compound]",loss over all of the cell population relative to the cells not treated with epoxomicin,[1]; [3],less than 70%
same,neuronal loss relative to the untreated cells,[1]; [3],82%
